Data published in ChEMBL document CHEMBL5052856, “Inhibitors of apol1 and methods of using same” (2021).

How the values were obtained:
[1] = system: Trypanosoma brucei brucei; experiment: Antitrypanosomal activity against Trypanosoma brucei brucei assessed as trypanosome lysis using recombinant APOL1 protein G1 variant and measured by Alamar blue based fluoresence assay; type: functional, organism-based
Apolipoprotein L1 = Apolipoprotein L1 (Homo sapiens, UniProt O14791); experiment: Inhibition of APOL1 G1 variant in human HEK293-T-REx cells measured by Thallium assay; type: cell-based

| Compound | IC50 [1] | IC50 (Apolipoprotein L1) |
| --- | --- | --- |
| O=C([C@H]1C[C@H](c2c(-c3ccc(F)cc3)[nH]c3c(F)cc(F)cc32)C1)N1CCCC1CCO (stereo partly drawn) | 250 nM | > 1000 nM |
| O=C([C@H]1C[C@H](c2c(-c3ccc(F)cc3)[nH]c3c(F)cc(F)cc32)C1)N1CCC[C@@H](CO)C1 | > 1000 nM | > 1000 nM |
| Cn1cnc(CNC(=O)[C@H]2C[C@H](c3c(-c4ccc(F)cc4)[nH]c4c(F)cc(F)cc43)C2)c1 | < 250 nM | < 250 nM |
| COCC1(NC(=O)[C@H]2C[C@H](c3c(-c4ccc(F)cc4)[nH]c4c(F)cc(F)cc43)C2)CC1 | < 250 nM | < 250 nM |
| O=C(NCCO)[C@H]1C[C@H](c2c(-c3ccc(F)cc3)[nH]c3c(F)cc(F)cc32)C1 | < 250 nM | < 250 nM |
| CC(C)(O)C1CN(C(=O)[C@H]2C[C@H](c3c(-c4ccc(F)cc4)[nH]c4c(F)cc(F)cc43)C2)C1 | > 1000 nM | > 1000 nM |
| CC(O)CN(C)C(=O)[C@H]1C[C@H](c2c(-c3ccc(F)cc3)[nH]c3c(F)cc(F)cc32)C1 (stereo partly drawn) | 250 nM | > 1000 nM |
| CC(=O)C1CCCCN1C(=O)[C@H]1C[C@H](c2c(-c3ccc(F)cc3)[nH]c3c(F)cc(F)cc32)C1 (stereo partly drawn) | 250 nM | > 1000 nM |
| CC(C)N1CCN(C(=O)[C@H]2C[C@H](c3c(-c4ccc(F)cc4)[nH]c4c(F)cc(F)cc43)C2)CC1=O | > 1000 nM | > 1000 nM |
| CC1(C)CN(C(=O)[C@H]2C[C@H](c3c(-c4ccc(F)cc4)[nH]c4c(F)cc(F)cc43)C2)CC1O (stereo partly drawn) | > 1000 nM | > 1000 nM |
| CN(CC(C)(C)O)C(=O)[C@H]1C[C@H](c2c(-c3ccc(F)cc3)[nH]c3c(F)cc(F)cc32)C1 | > 1000 nM | > 1000 nM |
| O=C(NC(CO)CF)[C@H]1C[C@H](c2c(-c3ccc(F)cc3)[nH]c3c(F)cc(F)cc32)C1 (stereo partly drawn) | < 250 nM | < 250 nM |
| O=C(NCc1ccn[nH]1)[C@H]1C[C@H](c2c(-c3ccc(F)cc3)[nH]c3c(F)cc(F)cc32)C1 | 250 nM | 0.25 nM |
| CC(N)(C(=O)NC(=O)[C@H]1C[C@H](c2c(-c3ccc(F)cc3)[nH]c3c(F)cc(F)cc32)C1)C(F)(F)F (stereo partly drawn) | 250 nM | > 1000 nM |
| CN(CCO)C(=O)[C@H]1C[C@H](c2c(-c3ccc(F)cc3)[nH]c3c(F)cc(F)cc32)C1 | < 250 nM | < 250 nM |
| O=C([C@H]1C[C@H](c2c(-c3ccc(F)cc3)[nH]c3c(F)cc(F)cc32)C1)N(CCO)C1CC1 | 250 nM | < 250 nM |
| O=C([C@H]1C[C@H](c2c(-c3ccc(F)cc3)[nH]c3c(F)cc(F)cc32)C1)N1CCC(O)(CO)CC1 | > 1000 nM | > 1000 nM |
| COCC1(CNC(=O)[C@H]2C[C@H](c3c(-c4ccc(F)cc4)[nH]c4c(F)cc(F)cc43)C2)CC1 | > 1000 nM | > 1000 nM |
| Cn1ccc(CNC(=O)[C@H]2C[C@H](c3c(-c4ccc(F)cc4)[nH]c4c(F)cc(F)cc43)C2)n1 | < 250 nM | 0.25 nM |
| O=C(CNC(=O)[C@H]1C[C@H](c2c(-c3ccc(F)cc3)[nH]c3c(F)cc(F)cc32)C1)NC1CC1 | > 1000 nM | > 1000 nM |
| Cc1cc(CNC(=O)[C@H]2C[C@H](c3c(-c4ccc(F)cc4)[nH]c4c(F)cc(F)cc43)C2)nn1C | 250 nM | > 1000 nM |
| O=C([C@H]1C[C@H](c2c(-c3ccc(F)cc3)[nH]c3c(F)cc(F)cc32)C1)N1CC(O)C(N2CCOCC2)C1 (stereo partly drawn) | > 1000 nM | > 1000 nM |

| Compound | IC50 [1] | IC50 (Apolipoprotein L1) |
| --- | --- | --- |
| C[C@H](NC(=O)[C@H]1C[C@H](c2c(-c3ccc(F)cc3)[nH]c3c(F)cc(F)cc32)C1)C(=O)N(C)C | 250 nM | 0.25 nM |
| O=C([C@H]1C[C@H](c2c(-c3ccc(F)cc3)[nH]c3c(F)cc(F)cc32)C1)N1CC(n2cccn2)C1 | > 1000 nM | > 1000 nM |
| NC(=O)C1(NC(=O)[C@H]2C[C@H](c3c(-c4ccc(F)cc4)[nH]c4c(F)cc(F)cc43)C2)CC1 | 250 nM | 0.25 nM |
| CN(C(=O)[C@H]1C[C@H](c2c(-c3ccc(F)cc3)[nH]c3c(F)cc(F)cc32)C1)C1(CO)CC1 | 250 nM | 0.25 nM |
| CO[C@H]1CCN(C(=O)[C@H]2C[C@H](c3c(-c4ccc(F)cc4)[nH]c4c(F)cc(F)cc43)C2)C1 | > 1000 nM | > 1000 nM |
| O=C([C@H]1C[C@H](c2c(-c3ccc(F)cc3)[nH]c3c(F)cc(F)cc32)C1)N1C[C@@H](CO)OCC12CC2 | > 1000 nM | > 1000 nM |
| O=C(NCC1(O)CCCCC1)[C@H]1C[C@H](c2c(-c3ccc(F)cc3)[nH]c3c(F)cc(F)cc32)C1 | > 1000 nM | > 1000 nM |
| CN(C)C(=O)CN(C)C(=O)[C@H]1C[C@H](c2c(-c3ccc(F)cc3)[nH]c3c(F)cc(F)cc32)C1 | > 1000 nM | 0.25 nM |
| O=C(NCC1(O)CCCC1)[C@H]1C[C@H](c2c(-c3ccc(F)cc3)[nH]c3c(F)cc(F)cc32)C1 | > 1000 nM | > 1000 nM |
| O=C(NCC1(O)CCC1)[C@H]1C[C@H](c2c(-c3ccc(F)cc3)[nH]c3c(F)cc(F)cc32)C1 | > 1000 nM | > 1000 nM |
| O=C([C@H]1C[C@H](c2c(-c3ccc(F)cc3)[nH]c3c(F)cc(F)cc32)C1)N1CCCCC1CCO (stereo partly drawn) | > 1000 nM | > 1000 nM |
| O=C([C@H]1C[C@H](c2c(-c3ccc(F)cc3)[nH]c3c(F)cc(F)cc32)C1)N1CCC(CO)(CO)CC1 | > 1000 nM | > 1000 nM |
| CN1CC(CNC(=O)[C@H]2C[C@H](c3c(-c4ccc(F)cc4)[nH]c4c(F)cc(F)cc43)C2)CC1=O (stereo partly drawn) | > 1000 nM | > 1000 nM |
| O=C(NC1(CCO)CC1)[C@H]1C[C@H](c2c(-c3ccc(F)cc3)[nH]c3c(F)cc(F)cc32)C1 | 250 nM | 0.25 nM |
| O=C([C@H]1C[C@H](c2c(-c3ccc(F)cc3)[nH]c3c(F)cc(F)cc32)C1)N1CC[C@H](CO)[C@H](O)C1 | > 1000 nM | > 1000 nM |
| O=C1NCC[C@H]1NC(=O)[C@H]1C[C@H](c2c(-c3ccc(F)cc3)[nH]c3c(F)cc(F)cc32)C1 | < 250 nM | 0.25 nM |
| CN(CC1(CO)CC1)C(=O)[C@H]1C[C@H](c2c(-c3ccc(F)cc3)[nH]c3c(F)cc(F)cc32)C1 | > 1000 nM | > 1000 nM |
| CCNC(=O)[C@@H]1CCCN1C(=O)[C@H]1C[C@H](c2c(-c3ccc(F)cc3)[nH]c3c(F)cc(F)cc32)C1 | > 1000 nM | > 1000 nM |
| C[C@@H](NC(=O)[C@H]1C[C@H](c2c(-c3ccc(F)cc3)[nH]c3c(F)cc(F)cc32)C1)C(=O)N(C)C | > 1000 nM | > 1000 nM |
| CC(C)(NC(=O)[C@H]1C[C@H](c2c(-c3ccc(F)cc3)[nH]c3c(F)cc(F)cc32)C1)C(=O)N1CCOCC1 | > 1000 nM | > 1000 nM |
| CC(=O)NC1CCCN(C(=O)[C@H]2C[C@H](c3c(-c4ccc(F)cc4)[nH]c4c(F)cc(F)cc43)C2)C1 (stereo partly drawn) | > 1000 nM | > 1000 nM |
| CC(NC(=O)[C@H]1C[C@H](c2c(-c3ccc(F)cc3)[nH]c3c(F)cc(F)cc32)C1)c1ccnn1C (stereo partly drawn) | > 1000 nM | > 1000 nM |

| Compound | IC50 [1] | IC50 (Apolipoprotein L1) |
| --- | --- | --- |
| O=C([C@H]1C[C@H](c2c(-c3ccc(F)cc3)[nH]c3c(F)cc(F)cc32)C1)N1CCC2(COC2)C1 | > 1000 nM | > 1000 nM |
| CCOCC1(CNC(=O)[C@H]2C[C@H](c3c(-c4ccc(F)cc4)[nH]c4c(F)cc(F)cc43)C2)CC1 | > 1000 nM | > 1000 nM |
| CN1CCN(C(=O)CNC(=O)[C@H]2C[C@H](c3c(-c4ccc(F)cc4)[nH]c4c(F)cc(F)cc43)C2)CC1 | > 1000 nM | > 1000 nM |
| NC(=O)[C@@H]1CCCN1C(=O)[C@H]1C[C@H](c2c(-c3ccc(F)cc3)[nH]c3c(F)cc(F)cc32)C1 | > 1000 nM | > 1000 nM |
| CC1CC(NC(=O)[C@H]2C[C@H](c3c(-c4ccc(F)cc4)[nH]c4c(F)cc(F)cc43)C2)C(=O)N1 (stereo partly drawn) | 250 nM | > 1000 nM |
| O=C(NC1(CO)CC1)[C@H]1C[C@H](c2c(-c3ccc(F)cc3)[nH]c3c(F)cc(F)cc32)C1 | < 250 nM | 0.25 nM |
| O=C(NCC1(CO)COC1)[C@H]1C[C@H](c2c(-c3ccc(F)cc3)[nH]c3c(F)cc(F)cc32)C1 | > 1000 nM | > 1000 nM |
| CC(NC(=O)[C@H]1C[C@H](c2c(-c3ccc(F)cc3)[nH]c3c(F)cc(F)cc32)C1)C(N)=O (stereo partly drawn) | 250 nM | 0.25 nM |
| CC1(O)CN(C(=O)[C@H]2C[C@H](c3c(-c4ccc(F)cc4)[nH]c4c(F)cc(F)cc43)C2)C1 | 250 nM | 0.25 nM |
| CC(NC(=O)[C@H]1C[C@H](c2c(-c3ccc(F)cc3)[nH]c3c(F)cc(F)cc32)C1)c1ccn(C)n1 (stereo partly drawn) | < 250 nM | 0.25 nM |
| COCc1cc(CNC(=O)[C@H]2C[C@H](c3c(-c4ccc(F)cc4)[nH]c4c(F)cc(F)cc43)C2)n[nH]1 | > 1000 nM | > 1000 nM |
| O=C([C@H]1C[C@H](c2c(-c3ccc(F)cc3)[nH]c3c(F)cc(F)cc32)C1)N1C[C@H]2C[C@@]2(CO)C1 | > 1000 nM | > 1000 nM |
| O=C([C@H]1C[C@H](c2c(-c3ccc(F)cc3)[nH]c3c(F)cc(F)cc32)C1)N1C2CCC(C2)C1CO (stereo partly drawn) | > 1000 nM | > 1000 nM |
| O=C([C@H]1C[C@H](c2c(-c3ccc(F)cc3)[nH]c3c(F)cc(F)cc32)C1)N1CC[C@H](CO)C1 | > 1000 nM | > 1000 nM |
| CN(CC(N)=O)C(=O)[C@H]1C[C@H](c2c(-c3ccc(F)cc3)[nH]c3c(F)cc(F)cc32)C1 | 250 nM | 0.25 nM |
| CN(C)C[C@@H]1CCN(C(=O)[C@H]2C[C@H](c3c(-c4ccc(F)cc4)[nH]c4c(F)cc(F)cc43)C2)C[C@H]1O | 250 nM | > 1000 nM |
| O=C([C@H]1C[C@H](c2c(-c3ccc(F)cc3)[nH]c3c(F)cc(F)cc32)C1)N1C[C@@H]2[C@@H](CO)[C@@H]2C1 | > 1000 nM | > 1000 nM |
| O=C([C@H]1C[C@H](c2c(-c3ccc(F)cc3)[nH]c3c(F)cc(F)cc32)C1)N1CCCC[C@@H]1CO | 250 nM | > 1000 nM |
| O=C(NCCCO)[C@H]1C[C@H](c2c(-c3ccc(F)cc3)[nH]c3c(F)cc(F)cc32)C1 | < 250 nM | 0.25 nM |
| C[C@H](O)CNC(=O)[C@H]1C[C@H](c2c(-c3ccc(F)cc3)[nH]c3c(F)cc(F)cc32)C1 | 250 nM | 0.25 nM |
